Data from PMC12314892, “Macrocyclic Phage Display for Identification of Selective Protease Substrates” (Journal of the American Chemical Society, 2025).
*1 amine or outer side, *2 acyl side, *3 side chain or, on linkers, in order; H or OH if unused. Where a SMILES comes first, the peptide text is derived from it. Bridges are numbered along the chain shown (N, C = ends). The star is where a group is joined. X1 = NC(=O)Cc1cc(=O)oc2cc(NC(=O)[C@@H]3CCCN3C(=O)Cn3nc(C[*:1])cc3C[*:2])ccc12; AMC = Cc1cc(=O)oc2cc(N*)ccc12

Tests used:
[1] = target: T1, Recombinant Human FAPα (Homo sapiens, UniProt Q12884); test: Fluorogenic substrate cleavage assay; assay type: biochemical
T1 construct: purchased R&D Systems 3715-SE-010
T1 sequence (Q12884 1-760): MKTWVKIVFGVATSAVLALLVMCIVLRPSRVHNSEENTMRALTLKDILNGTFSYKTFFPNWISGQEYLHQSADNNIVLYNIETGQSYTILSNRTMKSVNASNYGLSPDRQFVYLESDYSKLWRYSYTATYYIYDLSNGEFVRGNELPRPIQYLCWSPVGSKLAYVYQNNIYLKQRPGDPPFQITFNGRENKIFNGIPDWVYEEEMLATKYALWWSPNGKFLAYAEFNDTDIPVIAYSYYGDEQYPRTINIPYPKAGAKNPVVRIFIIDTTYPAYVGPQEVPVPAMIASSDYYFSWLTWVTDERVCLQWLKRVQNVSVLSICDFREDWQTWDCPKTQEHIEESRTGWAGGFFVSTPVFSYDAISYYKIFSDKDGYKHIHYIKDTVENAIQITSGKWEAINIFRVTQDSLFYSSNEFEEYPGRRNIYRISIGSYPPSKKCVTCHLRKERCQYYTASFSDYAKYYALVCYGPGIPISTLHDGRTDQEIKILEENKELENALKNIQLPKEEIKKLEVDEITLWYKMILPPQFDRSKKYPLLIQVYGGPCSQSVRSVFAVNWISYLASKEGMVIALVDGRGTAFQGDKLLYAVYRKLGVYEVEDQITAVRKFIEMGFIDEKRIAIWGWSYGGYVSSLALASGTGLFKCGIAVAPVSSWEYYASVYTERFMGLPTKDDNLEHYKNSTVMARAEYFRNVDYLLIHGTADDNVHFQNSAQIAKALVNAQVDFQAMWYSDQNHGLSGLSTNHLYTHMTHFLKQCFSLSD
Procedure: (§1) Fluorogenic Substrate Cleavage Assay
(§2) The following proteases were used for the activity assay: Recombinant Human FAPα Protein, CF (R&D Systems, Catalog No.: 3715-SE-010), Recombinant Human Prolyl Oligopeptidase/PREP Protein, CF (R&D Systems, Catalog No.: 4308-SE-010). Recombinant Human DPP9 Protein, CF (R&D Systems, Catalog No.: 5419-SE-010). Recombinant Human DPP4 Protein (Sino Biological, Catalog No.: 10688-HNCH-10). The buffers used for the activity assay were: FAPα - 50 mM Tris, 1 M NaCl, 1 mg/mL BSA, pH 7.5, PREP- 25 mM Tris, 250 mM NaCl, 2.5 mM DTT, pH 7.5 (DTT was freshly added immediately before use), DPP9- 25 mM Tris, pH 7.5, DPP4- 25 mM Tris, pH
(§3) 7.5. The following commercial substrates were used: zGP-AMC (Bachem,Catalog No.: […]
(§4) conducted in Greiner Bio-One black microplates of 384 wells and polystyrene F-bottom (Catalog No.: 784076). All compounds were dissolved in DMSO at a concentration of 10 mM and then diluted into the respective buffer to the desired final concentration. The protease was added to the specified concentration before the fluorescence measurements. For fluorescence measurements, 2 μL of substrate was further diluted into 6 μL of buffer, followed by addition of 2 μL of enzyme in buffer. For no enzyme controls 2 μL of substrate was diluted into 8 μL of buffer.
(§5) The fluorescence was measured using a Cytation 3 plate reader (BioTek). All experiments have at least three technical replicates. All assays were conducted at 37°C for a minimum of 90 min, unless otherwise noted. Fluorescence measurements were performed at ex/em, 355/460 nm for ACC substrates. The substrates velocity was quantified by calculating the slope of the linear phase of the reaction as relative fluorescence units (RFU) per min. […]

[2] = target: T2, Recombinant Human DPP9 (Homo sapiens, UniProt Q86TI2); test: Fluorogenic substrate cleavage assay; assay type: biochemical; details: Supplementary figure 11; 200 μM, 1 hour at 37°C; 2 nM DPP4 vs 6 nM DPP9; RFU/min
T2 construct: purchased R&D Systems 5419-SE-010
T2 sequence (Q86TI2 whole entry): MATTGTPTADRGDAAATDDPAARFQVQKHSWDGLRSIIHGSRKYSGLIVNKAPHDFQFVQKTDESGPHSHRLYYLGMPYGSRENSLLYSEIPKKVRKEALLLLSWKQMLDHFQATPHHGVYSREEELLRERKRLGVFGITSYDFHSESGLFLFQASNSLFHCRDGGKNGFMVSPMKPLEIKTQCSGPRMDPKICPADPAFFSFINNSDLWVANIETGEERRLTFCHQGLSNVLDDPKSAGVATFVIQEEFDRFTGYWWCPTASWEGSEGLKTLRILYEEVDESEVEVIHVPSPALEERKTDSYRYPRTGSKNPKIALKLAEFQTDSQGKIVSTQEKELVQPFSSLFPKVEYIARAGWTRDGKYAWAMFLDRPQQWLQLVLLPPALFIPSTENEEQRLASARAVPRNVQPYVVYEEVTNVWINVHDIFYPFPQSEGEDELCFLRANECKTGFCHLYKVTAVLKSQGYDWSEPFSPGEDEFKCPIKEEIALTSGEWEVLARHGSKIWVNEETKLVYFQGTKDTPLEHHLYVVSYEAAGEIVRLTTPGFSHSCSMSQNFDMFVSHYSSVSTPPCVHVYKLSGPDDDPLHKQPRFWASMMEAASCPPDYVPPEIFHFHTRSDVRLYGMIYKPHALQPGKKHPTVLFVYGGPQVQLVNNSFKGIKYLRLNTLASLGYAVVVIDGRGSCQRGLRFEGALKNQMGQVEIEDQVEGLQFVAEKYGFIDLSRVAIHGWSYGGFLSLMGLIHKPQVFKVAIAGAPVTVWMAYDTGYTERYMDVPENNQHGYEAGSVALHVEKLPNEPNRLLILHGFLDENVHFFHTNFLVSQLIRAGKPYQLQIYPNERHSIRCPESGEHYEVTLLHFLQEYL
Procedure: as §1, §2, §3, §4, §5

## CC(C)[C@@H]1NC(=O)[C@@H](N)CSCc2cc(n(CC(=O)N3CCC[C@H]3C(=O)Nc3ccc4c(CC(N)=O)cc(=O)oc4c3)n2)CSC[C@@H](C(=O)NCC(N)=O)NC(=O)[C@H](CC(=O)O)NC(=O)[C@H](C)NC(=O)[C@H](CC(N)=O)NC(=O)[C@H](CCC(N)=O)NC(=O)[C@H](Cc2ccccc2)NC(=O)[C@H](CO)NC1=O [FAP-33.2A6] (H-CVSFQNADCG-NH2; linker 1-9 via X1; N-terminus assumed)
[1]; substrate 200 μM, 10 nM FAPα, 37 °C, triplicates
  FAPα activity (substrate cleavage, RFU/min), in words: better substrate than the parent FAP-33.2

## Cc1cc(=O)oc2cc(NC(=O)[C@@H]3CCCN3C(=O)CN)ccc12 [GP-AMC] (H-Gly-Pro-{AMC})
[1]; Supplementary figure 11, 200 μM, 1 hour at 37°C, 2 nM DPP4 vs 10 nM FAPα, RFU/min
  selectivity for DPP4 (vs FAPα): 16 fold
[2]
  selectivity for DPP4 (vs DPP9): 11 fold
